Assay results from US7731985B2, “4-aminopyrimidines and their use for the antimicrobial treatment of surfaces” (Ciba Specialty Chemicals Corporation, priority 2002, dated 2010).

Legend:
Test in all cases: MIC in microtitre plates (Example 10)
Assay type in all cases: cell-based
Set-up in all cases: unit not given here
Conditions in all cases: microtitre plate, 48 hours at 37° C., ≦20% growth
[1] = test system: Candida albicans ATCC 10231 (=CA)
Protocol: (§1) Determination of the Minimum Inhibitory Concentration (MIC Value) in Microtitre Plates Casein/soymeal peptone broth for preparation of pre-cultures of test bacteria and yeast Bacteria: • Pseudomonas aeruginosa CIP A-22 (=PA) • Escherichia coli NCTC 8196 (=EC) • Staphylococcus aureus ATCC 9144 (=SA) • Candida albicans ATCC 10231 (=CA) The test substances are pre-dissolved in dimethyl sulfoxide (DMSO) and tested in a dilution series of 1:2. Bacteria and yeast are cultured overnight in CASO broth. All the test organism suspensions are adjusted to an organism count of 1-5×10^6 CFU/ml using […] sodium chloride solution. The test substances are pre-pipetted into microtitre plates in amounts of 8 μl per well. The pre-adjusted organism suspensions are diluted 1:100 in CASO broth and are added in amounts of 192 μl per well to the test substances. The test batches are incubated for 48 hours at 37° C. The incubation, the growth is determined on the basis of the turbidity of the test batches (optical density) at 620 nm in a microplate reader. The minimum inhibitory concentration (MIC value) is the concentration of substance at which (compared to the growth of the control) an appreciable inhibition of growth (≦20% growth) of the test organisms is observed. Three microtitre plates are used for each test organism and substance concentration. All the substances are tested in duplicate.

[2] = test system: Escherichia coli NCTC 8196 (=EC)
Protocol: as §1

[3] = test system: Pseudomonas aeruginosa CIP A-22 (=PA)
Protocol: as §1

[4] = test system: Staphylococcus aureus ATCC 9144 (=SA)
Protocol: as §1

Row | Compound | MIC CA [1] | MIC EC [2] | MIC PA [3] | MIC SA [4]
1 | NCCCCCCCCCCCCNc1nc(-c2ccccc2)nc(-c2ccc(F)cc2)c1-c1ccccc1 [compound 8] | 120 | 30 | >120 | 30
2 | CCCCCCCCCCCCNc1cc(C)nc(-c2ccc(C)c(F)c2)n1 [compound 95] | 15 | 30 | >120 | 15
3 | NCCCN1CCN(CCCNc2nc(-c3ccccc3)nc(-c3cccc(C(F)(F)F)c3)c2-c2ccccc2)CC1 [compound 23] | 7.5 | 7.5 | 30 | 15
4 | CNCCN(C)c1nc(-c2ccccc2)nc(-c2cccc(C(F)(F)F)c2)c1-c1ccccc1 [compound 17] | 15 | 30 | >120 | 15
5 | CCCCCCNc1cc(C)nc(-c2ccccc2)n1 [compound 111] | 60 | 120 | >120 | 7.5
6 | CCCCCCCCCCNc1cc(C)nc(-c2csc(C)n2)n1 [compound 106] | 15 | 15 | >120 | <3.75
7 | NCCNCCNc1nc(-c2ccccc2)nc(-c2cccc(C(F)(F)F)c2)c1-c1ccccc1 [compound 18] | 60 | 30 | 120 | 30
8 | Fc1ccc(-c2nc(-c3ccccc3)nc(N3CCCNCC3)c2-c2ccccc2)cc1 [compound 7] | 30 | 15 | >120 | 15
9 | CN(CCCN)CCCNc1nc(-c2ccccc2)nc(-c2cccc(C(F)(F)F)c2)c1-c1ccccc1 [compound 21] | <3.75 | <3.75 | 7.5 | 7.5
10 | CCCCCCCCNc1cc(C)nc(-c2cccc(F)c2)n1 [compound 61] | 120 | 120 | >120 | 30
11 | CCCCCCCCCCNc1cc(C)nc(-c2ccncc2)n1 [compound 100] | 15 | 15 | >120 | 15
12 | CCCCN(C)c1cc(C)nc(-c2ccncc2)n1 [compound 125] | 120 | >120 | >120 | 120
13 | NCCCOCCCCOCCCNc1nc(-c2ccccc2)nc(-c2cccc3ccccc23)c1-c1ccccc1 [compound 6] | >120 | 60 | >120 | 7.5
14 | CCCCCCCCCCCCCCNc1cc(C)nc(-c2csc(C)n2)n1 [compound 82] | 7.5 | 15 | >120 | <3.75
15 | Cc1cc(NC(C)CC(C)C)nc(-c2ccccc2)n1 (stereo not shown) [compound 141] | >120 | >120 | >120 | 120
16 | CCCCCCCCNc1cc(C)nc(-c2ccc(C)cc2)n1 [compound 66] | 30 | 30 | >120 | <3.75
